{
  "source": "patent US8410105B2",
  "about": "“Pyridazinyl amine derivatives, the use thereof in the preparation of picorna virus inhibitors” (Institute of Pharmacology and Toxicology Academy of …, priority 2005, dated 2013)",
  "key": {"[1]": {"test_system": "Rhinovirus-3(HRV-3)", "assay": "Preventive administration: drug pre-mixed with virus, protection of HeLa cells from CPE", "type": "cell-based", "conditions": "drug 100 ng/ml, virus about 100 TCID50, 33° C., three days, FIG. 1", "protocol": "(§1) HeLa cells (self-preserved in the laboratory)\n(§2) Rhinovirus-3(HRV-3) (ATCC: VR-1113)\nPrinciple: the drug and the virus were pre-mixed and incubated to block the procedure of viral uncoating and invasion into cells.\nMethods: the drug at a concentration of 100 ng/ml was placed into a 12-well plate, then viral dose at TCID50 value of about 100 was added, after 0.5 h, 500,000 cells were added into each well, and incubated at 33° C. After three days, when the control group presented 100% cytopathic effect (CPE), the effects of the drug for preventing cells from being phagocytized were observed, and expressed as cell protection rate (%)."}, "[2]": {"test_system": "rhinovirus", "assay": "Ex vivo anti-rhinovirus screening: ACh-induced tension of rabbit tracheal rings exposed to rhinovirus", "conditions": "for Tension, average: drug 100 μg/ml plus rhinovirus, rabbit tracheal rings"}, "[3]": {"test_system": "Rhinovirus-3(HRV-3)", "assay": "Therapeutic administration: drug added after viral infection of adherent HeLa cells, protection from CPE", "type": "cell-based", "conditions": "drug 100 ng/ml added 0.5 h after virus (about 100 TCID50), 33° C., three days, FIG. 2", "protocol": "as §1, §2\nMethod: 500,000 cells were added into each well, incubated at 33° C. overnight for adherence, then viral dose at TCID50 value of about 100 was added, the culture medium was removed by absorption after 0.5 h, the drug was added into a 12-well plate at a concentration of 100 ng/ml, the total volume of the reaction system was 2 ml. After three days, when the virus control group presented 100% cytophagocytesis (CPE), the effects of the drug for preventing cells from being phagocytized were observed."}},
  "data": [
    {"molecule": "Cc1cccc(C)c1OCCN1CCN(c2cc(Cl)nnc2Cl)CC1", "note": "[Example 4, 3,6-dichloro-4-{4-[2-(2,6-dimethyl-phenoxyethyl)]-piperazin-1-yl}pyridazine]", "values": [
      {"measurement": "effects of the drug for preventing cells from being phagocytized, cell protection rate", "setting": "[1]", "result": "better effects"}
    ]},
    {"molecule": "CCOC(=O)c1ccc(OCCN2CCN(c3cc(Cl)nnc3Cl)CC2)nc1", "note": "[Example 31, 6-{2-[4-(3,6-dichloro-pyridazin-4-yl)-piperazin-1-yl]-ethoxy}-nicotinic acid ethyl ester]", "values": [
      {"measurement": "effects of the drug for preventing cells from being phagocytized, cell protection rate", "setting": "[1]", "result": "better effects"},
      {"measurement": "Tension, average", "setting": "[2]; Ach concentration (log M) −3", "result": 1.95, "unit": "g"},
      {"measurement": "Tension, average", "setting": "[2]; Ach concentration (log M) −3.7", "result": 1.86, "unit": "g"},
      {"measurement": "Tension, average", "setting": "[2]; Ach concentration (log M) −4", "result": 1.72, "unit": "g"},
      {"measurement": "Tension, average", "setting": "[2]; Ach concentration (log M) −4.3", "result": 1.54, "unit": "g"},
      {"measurement": "Tension, average", "setting": "[2]; Ach concentration (log M) −4.7", "result": 1.30, "unit": "g"},
      {"measurement": "Tension, average", "setting": "[2]; Ach concentration (log M) −5", "result": 1.00, "unit": "g"},
      {"measurement": "Tension, average", "setting": "[2]; Ach concentration (log M) −5.3", "result": 0.73, "unit": "g"},
      {"measurement": "Tension, average", "setting": "[2]; Ach concentration (log M) −5.7", "result": 0.35, "unit": "g"},
      {"measurement": "Tension, average", "setting": "[2]; Ach concentration (log M) −6", "result": 0.11, "unit": "g"},
      {"measurement": "Tension, average", "setting": "[2]; Ach concentration (log M) −7", "result": 0.00, "unit": "g"},
      {"measurement": "effect on the rhinovirus-caused excessive increase of Ach-induced tracheal smooth muscular tension", "setting": "[2]; drug 100 μg/ml, FIG. 3", "result": "obviously inhibit the excessive increase of Ach-induced tracheal smooth muscular tension caused by rhinovirus"},
      {"measurement": "effects of the drug for preventing cells from being phagocytized", "setting": "[3]", "result": "better effects"}
    ]},
    {"molecule": "4-{2-[4-(3,6-dichloropyridazin-4-yl)-piperazin]-1-yl)-ethoxy]-benzoic acid isopropyl ester [Example 13]", "values": [
      {"measurement": "effects of the drug for preventing cells from being phagocytized, cell protection rate", "setting": "[1]", "result": "better effects"}
    ]},
    {"molecule": "COC(=O)c1ccc(OCCN2CCN(c3cc(Cl)nnc3Cl)CC2)nc1", "note": "[Example 32, 6-{2-[4-(3,6-dichloropyridazin-4-yl)piperazin-1-yl]-ethoxy}-nicotinic acid methyl ester]", "values": [
      {"measurement": "effects of the drug for preventing cells from being phagocytized, cell protection rate", "setting": "[1]", "result": "better effects"}
    ]}
  ]
}
